From ChEMBL document CHEMBL4831544, “Discovery of IHMT-EZH2-115 as a Potent and Selective Enhancer of Zeste Homolog 2 (EZH2) Inhibitor for the Treatment of B-Cell Lymphomas” (J Med Chem, 2021)

Key:
[1] = Antiproliferative activity against human WSUDLCL2 cells assessed as inhibition of cell growth measured after 6 days by CellTiter-Glo luminescent assay; format: functional; details: WSUDLCL2, 144 h, time 6 day
[2] = AUC (0 to infinity) in rat at 1 mg/kg, iv; format: ADME, organism-based; design: route intravenous, time infinity, dose 1 mg/kg; details: in vivo
[3] = Cmax in rat at 10 mg/kg, po; format: ADME, organism-based; design: route oral, dose 10 mg/kg; details: in vivo
[4] = Apparent volume of distribution in rat at 1 mg/kg, iv; format: ADME, organism-based; details: in vivo; for Vd: read-out: Vz
[5] = Clearance in rat at 10 mg/kg, po; format: ADME, organism-based; details: in vivo; for CL: 10 mg/kg
[6] = Half life in rat at 10 mg/kg, po; format: ADME, organism-based; details: in vivo
[7] = AUC (0 to infinity) in rat at 10 mg/kg, po; format: ADME, organism-based; design: time infinity, route oral, dose 10 mg/kg; details: in vivo
[8] = Oral bioavailability in rat at 10 mg/kg; format: ADME, organism-based; details: in vivo
[9] = Cmax in rat at 1 mg/kg, iv; format: ADME, organism-based; design: route intravenous, dose 1 mg/kg; details: in vivo
[10] = Apparent volume of distribution in rat at 10 mg/kg, po; format: ADME, organism-based; details: in vivo
[11] = Clearance in rat at 1 mg/kg, iv; format: ADME, organism-based; details: in vivo
[12] = Half life in rat at 1 mg/kg, iv; format: ADME, organism-based; details: in vivo
SU-DHL-6 = assay: Antiproliferative activity against human SU-DHL-6 cells harboring EZH2 Y641N mutant assessed as inhibition of cell growth measured after 6 days by CellTiter-Glo luminescent assay; format: functional; details: SU-DHL-6, 144 h, time 6 day
KARPAS-422 [13] = assay: Antiproliferative activity against human KARPAS-422 cells harboring EZH2 Y641N mutant assessed as inhibition of cell growth measured after 6 days by CellTiter-Glo luminescent assay; format: functional; details: KARPAS-422, 144 h, time 6 day
KARPAS-422 [14] = assay: Antitumor activity against human KARPAS-422 cells harboring EZH2 Y641N mutant xenografted in NCG mouse assessed as tumor growth inhibition at 200 mg/kg, po BID via gavage measured after 28 days relative to control; format: functional; details: KARPAS-422, po, 672 h, time 28 day, read-out: TGI
[15] = Antiproliferative activity against human WSUDLCL2 cells harboring EZH2 Y641F mutant assessed as inhibition of cell growth measured after 6 days by CellTiter-Glo luminescent assay; format: functional; details: WSUDLCL2, 144 h, time 6 day
KARPAS-422 [16] = assay: Antitumor activity against human KARPAS-422 cells harboring EZH2 Y641N mutant xenografted in NCG mouse assessed as change in tumor weight at 200 mg/kg, po BID via gavage measured after 28 days (reference value: 2.14 g); format: functional; details: time 28 day
Pfeiffer [17] = assay: Antiproliferative activity against human Pfeiffer cells harboring EZH2 A677G mutant assessed as inhibition of cell growth measured after 6 days by CellTiter-Glo luminescent assay; format: functional; details: 144 h, time 6 day
[18] = Toxicity in NCG mouse xenografted with human KARPAS-422 cells harboring EZH2 Y641N mutant assessed as effect on body weight at 200 mg/kg, po BID via gavage measured after 28 days; format: organism-based; details: in vivo, 672 h, time 28 day
[19] = Toxicity in NCG mouse xenografted with human Pfeiffer cells harboring EZH2 A677G mutant assessed as effect on body weight at 200 mg/kg, po BID via gavage measured after 28 days; format: organism-based; details: in vivo, 672 h, time 28 day
SUD4 = assay: Antiproliferative activity against human SU-DHL-4 cells harboring EZH2 Y641S mutant assessed as inhibition of cell growth measured after 6 days by CellTiter-Glo luminescent assay; format: functional; details: SU-DHL-4, 144 h, time 6 day
U2932 = assay: Antiproliferative activity against human U2932 cells expressing wild type EZH2 assessed as inhibition of cell growth measured after 6 days by CellTiter-Glo luminescent assay; format: functional; details: U2932, 144 h, time 6 day
Pfeiffer [20] = assay: Antitumor activity against human Pfeiffer cells harboring EZH2 A677G mutant xenografted in NCG mouse assessed as tumor growth inhibition at 200 mg/kg, po BID via gavage measured after 28 days relative to control; format: functional; details: 672 h, time 28 day, read-out: TGI

SMILES: CCN(C(=O)C1CC1)c1cc(-c2ccc(N3CCN(CC4CC4)CC3)cc2)cc(C(=O)NCc2c(C)cc(C)[nH]c2=O)c1C
- GI50 [1]: 100 nM

SMILES: CCN(C(=O)C1CC1)c1cc(-c2ccc(NC(=O)c3cccnc3)cc2)cc(C(=O)NCc2c(C)cc(C)[nH]c2=O)c1C
- GI50 [1]: 800 nM

SMILES: CCN(C(=O)C1CCOCC1)c1cc(-c2ccc(CN3CCOCC3)cc2)cc(C(=O)NCc2c(C)cc(C)[nH]c2=O)c1C
- GI50 [1]: 16200 nM

SMILES: CCN(C(=O)C1CC1)c1cc(-c2ccc(CN3CCOCC3)cc2)cc(C(=O)NCc2c(C)cc(C)[nH]c2=O)c1C
- AUC(0-inf) [2]: 242 ng·h/mL
- Cmax [3]: 106 ng/mL
- GI50 [1]: 200 nM
- Vd [4]: 4.8 L/kg
- CL/F [5]: 1170 mL/min/kg
- half-life [6]: 1.88 h
- AUC(0-inf) [7]: 244 ng·h/mL
- bioavailability [8]: 10.1%
- Cmax [9]: 686 ng/mL
- Vz [10]: 208.585 L/kg
- clearance [11]: 69.1 mL/min/kg
- half-life [12]: 0.8 h

SMILES: CCN(C(=O)C1CC1)c1cc(-c2ccc(NC(=O)C3CCOCC3)cc2)cc(C(=O)NCc2c(C)cc(C)[nH]c2=O)c1C
- GI50 [1]: 700 nM

SMILES: Cc1cc(C)c(CNC(=O)c2cc(-c3ccc(CN4CCOCC4)cc3)cc3c2CCN3C(=O)C2CCCC2)c(=O)[nH]1
- GI50 [1]: 44000 nM

SMILES: CCN(C(=O)C1CC1)c1cc(-c2cnc(N3CCN(CC4CC4)CC3)cc2C)cc(C(=O)NCc2c(C)cc(C)[nH]c2=O)c1C
- GI50 [1]: 200 nM

SMILES: CCN1CCN(c2ccc(-c3cc(C(=O)NCc4c(C)cc(C)[nH]c4=O)c(C)c(N(CC)C(=O)C4CC4)c3)cc2)CC1
- AUC(0-inf) [2]: 241 ng·h/mL
- Cmax [3]: 115 ng/mL
- GI50 [1]: 200 nM
- Vd [4]: 9.32 L/kg
- CL [5]: 1805.68 mL/min/kg
- half-life [6]: 2.08 h
- AUC [7]: 242 ng·h/mL
- bioavailability [8]: 13%
- Cmax [9]: 444 ng/mL
- Vz [10]: 470.567 L/kg
- clearance [11]: 69.9 mL/min/kg
- half-life [12]: 1.55 h

SMILES: CCN(C(=O)C1CC1)c1cc(-c2ccc(N3CCN(CC4CC4)CC3)nc2)cc(C(=O)NCc2c(C)cc(C)[nH]c2=O)c1C
- AUC(0-inf) [2]: 277 ng·h/mL
- Cmax [3]: 67 ng/mL
- GI50 [1]: 200 nM
- Vd [4]: 6.5 L/kg
- CL/F [5]: 675 mL/min/kg
- half-life [6]: 1.46 h
- AUC(0-inf) [7]: 260 ng·h/mL
- bioavailability [8]: 9.4%
- Cmax [9]: 673 ng/mL
- Vz [10]: 84.455 L/kg
- clearance [11]: 60.3 mL/min/kg
- half-life [12]: 1.25 h

SMILES: CCN(C(=O)C(C)C)c1cc(-c2ccc(CN3CCOCC3)cc2)cc(C(=O)NCc2c(C)cc(C)[nH]c2=O)c1C
- GI50 [1]: 500 nM

SMILES: CCN(C(=O)C1CC1)c1cc(-c2cnc(N3CCN(CC4CC4)CC3)c(C)c2)cc(C(=O)NCc2c(C)cc(C)[nH]c2=O)c1C
- AUC(0-inf) [2]: 277 ng·h/mL
- Cmax [3]: 42 ng/mL
- GI50 [1]: 300 nM
- Vz ([4]; 1 mg/kg): 79.554 L/kg
- CL [5]: 155.8 mL/min/kg
- t1/2 ([6]; 10 mg/kg): 1.82 h
- AUC [7]: 132 ng·h/mL
- bioavailability [8]: 4.8%
- Cmax [9]: 609 ng/mL
- Vz [10]: 205.232 L/kg
- CL ([11]; 1 mg/kg): 60.87 mL/min/kg
- t1/2 ([12]; 1 mg/kg): 1.79 h

SMILES: CCN(C(=O)C1CC1)c1cc(-c2ccc(N)cc2)cc(C(=O)NCc2c(C)cc(C)[nH]c2=O)c1C
- GI50 [1]: 800 nM

SMILES: CCN(C(=O)c1ccccc1)c1cc(-c2ccc(CN3CCOCC3)cc2)cc(C(=O)NCc2c(C)cc(C)[nH]c2=O)c1C
- GI50 [1]: 34700 nM

SMILES: CCN(C(C)=O)c1cc(-c2ccc(CN3CCOCC3)cc2)cc(C(=O)NCc2c(C)cc(C)[nH]c2=O)c1C
- GI50 [1]: 13000 nM

SMILES: CCN(c1cc(-c2ccc(CN3CCOCC3)cc2)cc(C(=O)NCc2c(C)cc(C)[nH]c2=O)c1C)C1CCOCC1 [TAZEMETOSTAT]
- GI50 (SU-DHL-6): 1050 nM
- GI50 (KARPAS-422 [13]): 90 nM
- GI50 [1]: 300 nM
- inhibition in vivo at 200 mg/kg (KARPAS-422 [14]): 89.3%
- GI50 [15]: 80 nM
- Activity (KARPAS-422 [16]): 0.23 g
- GI50 (Pfeiffer [17]): 2 nM
- Activity [18]: Non-Toxic
- Activity [19]: Non-Toxic
- GI50 (SUD4): 3390 nM
- GI50 (U2932): > 10000 nM
- inhibition in vivo at 200 mg/kg (Pfeiffer [20]): 100%

SMILES: CCN(C(=O)C1CC1)c1cc(-c2ccc(N3CCNCC3)cc2)cc(C(=O)NCc2c(C)cc(C)[nH]c2=O)c1C
- GI50 [1]: 200 nM

SMILES: CCN(C(=O)C1CC1)c1cc(-c2ccc(N3CCOCC3)cc2)cc(C(=O)NCc2c(C)cc(C)[nH]c2=O)c1C
- GI50 [1]: 200 nM

SMILES: CCC(=O)N(CC)c1cc(-c2ccc(CN3CCOCC3)cc2)cc(C(=O)NCc2c(C)cc(C)[nH]c2=O)c1C
- GI50 [1]: 900 nM

SMILES: CCN(C(=O)C1CCC1)c1cc(-c2ccc(CN3CCOCC3)cc2)cc(C(=O)NCc2c(C)cc(C)[nH]c2=O)c1C
- GI50 [1]: 900 nM

SMILES: Cc1cc(C)c(CNC(=O)c2cc(-c3ccc(CN4CCOCC4)cc3)cc3c2CCN3C(=O)C2CCOCC2)c(=O)[nH]1
- GI50 [1]: 94500 nM

SMILES: Cc1cc(C)c(CNC(=O)c2cc(-c3ccc(CN4CCOCC4)cc3)cc3c2CCN3C(=O)C2CC2)c(=O)[nH]1
- GI50 [1]: 50500 nM

SMILES: CCN(C(=O)C1CC1)c1cc(-c2ccc(NC(=O)c3cccs3)cc2)cc(C(=O)NCc2c(C)cc(C)[nH]c2=O)c1C
- GI50 [1]: 900 nM

SMILES: CCN(C(=O)C1CCCCC1)c1cc(-c2ccc(CN3CCOCC3)cc2)cc(C(=O)NCc2c(C)cc(C)[nH]c2=O)c1C
- GI50 [1]: 32400 nM

SMILES: CCN(C(=O)C1CC1)c1cc(-c2ccc(NC(=O)CCN(C)C)cc2)cc(C(=O)NCc2c(C)cc(C)[nH]c2=O)c1C
- GI50 [1]: 1800 nM

SMILES: CCN(C(=O)C1CCCC1)c1cc(-c2ccc(CN3CCOCC3)cc2)cc(C(=O)NCc2c(C)cc(C)[nH]c2=O)c1C
- AUC(0-inf) [2]: 269 ng·h/mL
- Cmax [3]: 473 ng/mL
- GI50 [1]: 300 nM
- Vd [4]: 2.03 L/kg
- CL/F [5]: 542 mL/min/kg
- half-life [6]: 1.03 h
- AUC(0-inf) [7]: 406 ng·h/mL
- bioavailability [8]: 15.1%
- Cmax [9]: 824 ng/mL
- Vz [10]: 53.401 L/kg
- clearance [11]: 62.7 mL/min/kg
- half-life [12]: 0.38 h

SMILES: CC[C@H](C)n1cc(C)c2c(C(=O)NCc3c(C)cc(C)[nH]c3=O)cc(-c3ccc(N4CCNCC4)nc3)cc21 [GSK2816126]
- GI50 [1]: 5000 nM

SMILES: Cc1cc(C)c(CNC(=O)c2cc(-c3ccc(CN4CCOCC4)cc3)cc3c2CCN3C(=O)c2ccco2)c(=O)[nH]1
- GI50 [1]: 51600 nM
